Where “and” joins values, the source holds several entries; their conditions need not be identical. Equal values may be shown once.
What was measured:
[1] = system: SRB isolate ATCC 29579 Desulfovibrio vulgaris subspecies vulgaris; test: Biofilm produced by SRB (sulphate reducing bacteria) on carbon steel coupon in fluids; type: cell-based; conditions: 10 mg/ml, 20 °C for 12 days
Description: One SRB isolate (the culture collection strain: ATCC 29579 Desulfovibrio vulgaris subspecies vulgaris) was tested. 1,4-cyclohexanedione and cyclopentanone were diluted in the culture medium ATCC 1249 to a concentration of 10 mg/ml (1%) and added to each their 50 ml Falcon centrifugal tube. A third tube, with 10 ml of medium only (ATCC 1249) was included as a control. 50 μl SRB starting culture was added to each of the three tubes together with a carbon steel coupon. Biofilm was formed on the coupon by incubating at 20° C. for 12 days. After incubation, the coupons were washed in 40 ml sterile saline to remove loosely adhered cells. A sample from this fluid was injected into SRB medium and blackening of the medium was visualized, showing that there were still free-floating bacteria present.

[2] = system: Gram negative bacteria (Salmonella isolates); test: Biofilm formation in polystyrene microtiter plates (crystal violet, OD595), Gram negative bacteria; type: cell-based, Salmonella ser. Typhimurium, Salmonella ser. Agona; conditions: 10 mg/ml, two days at 20 °C
Description: (§1) All experiments were performed by using sterile 96-wells polystyrene microtiter plates (Nunc, Nuncleon, Roskilde, Denmark) under conditions promoting biofilm formation by the different bacterial genera. The Inhibio compound preparations of the invention; 1,3-cyclohexanedione, 1,4-cyclohexanedione, cyclopentanone, 5-ethylcyclohexane-1,3-dione and 5-methyl-1,3 cyclohexanedione 98% were solved directly in Tryptic Soy Broth (TSB) 1+1 or Liquid Microbiology Broth (LB) broth without NaCl (LB^wo/NaCl) to obtain the test concentrations, i.e. from 1 mg/ml to 10 mg/ml.
(§2) One Salmonella ser. Typhimurium (S. Typhimurium), two Salmonella ser. Agona (S. Agona) and two Escherichia coli (E. coli) isolates were used in these studies. The studies performed using 1,3-cyclohexanedione and 1,4-cyclohexanedione were done on Salmonella isolates only. The studies comparing Menthone to 1,3-cyclohexanedione were using two E. coli strains, E. coli 1242 and E. coli 1153, see FIG. 11. The Salmonella isolates were isolated from Norwegian feed factories except one S. Typhimurium strain which was a culture collection strain (ATCC 14028). The E. coli isolates were of animal origin. All strains were stored at −80° C. in BHI supplemented with 15% glycerine and were recovered on blood agar at 37.0±1.0° C. The bacterial cultures were then transferred into LB broth and incubated statically overnight at 37.0±1.0° C. to obtain an overnight working culture. A total of 30 μl of this suspension was transferred to each well in 96 wells polystyrene microtiter plates (Nunc, Nuncleon, Roskilde, Denmark) in triplets. The wells were containing 100 μl LB^wo/NaCl (bacto-tryptone 10 g/l, yeast extract 5 g/l) with 1,3-cyclohexanedione dissolved in concentration 0 mg/ml, 1 mg/ml and 10 mg/ml in the total amount of broth and 1,4-cyclohexanedione and cyclopentanone at 0 mg/ml and 10 mg/ml. The microtiter plates were incubated statically for two days, at 20±1.0° C. After incubation, OD595 was measured before the plates were gently washed one time with 150 μl tap water. The plates were dried in room temperature before addition of 140 μl 1% crystal violet (Sigma-Aldrich). After 30 minutes incubation in room temperature, the plates were washed three times with tap water before addition of 140 μl ethanol:acetone (70:30 w:w) and incubated for another 10 minutes in room temperature. OD595 was measured in a microplate photometer (Multiscan EX) after the bound dye was dissolved using ethanol:acetone. For each strain, the result was calculated by subtracting the median OD595 of the three parallels of the control (test broth only) from the median OD595 of the three parallels of sample. Further, the averages of the Gram negative strains were calculated. Three independent experiments were performed and the average was evaluated.

[3] = system: Gram positive bacteria (three Staphylococcus aureus strains); test: Biofilm formation in polystyrene microtiter plates (crystal violet, OD595), Gram positive bacteria; type: cell-based; conditions: one day at 37 °C
Description: as §1
Three Staphylococcus aureus strains of animal origin were used in this study. All strains were stored at −80° C. in Brain Heart Infusion Broth (BHI) (Difco, BD, Franklin Lakes, N.J., USA) supplemented with 15% glycerine (Merck KGaA, Darmstadt, Germany) and were recovered on blood agar at 37.0±1.0° C. The bacterial cultures were then transferred into TSB and were incubated statically overnight at 37.0±1.0° C. to obtain an overnight working culture. A total of 2 μl of this suspension was transferred to each 96 wells of polystyrene microtiter plates (Nunc, Nuncleon, Roskilde, Denmark) containing 198 μl TSB 1+1 with dissolved Inhibio compounds in the following concentrations: 0 mg/ml, 1 mg/ml and 10 mg/ml for 1,3-cyclohexanedione; 0 mg/ml and 10 mg/ml for 1,4-cyclohexanedione; and 0 mg/ml, 1 mg/ml, 2 mg/ml and 10 mg/ml for 5-ethylcyclohexane-1,3-dione and 5-Methyl-1,3-cyclohexanedione in the total amount of broth. Three parallels of each strain were used and the microtiter plates were incubated statically for one day, at 37±1.0° C. After incubation, OD595 was measured in a microplate photometer (Multiscan EX; Thermo Fisher Scientific Inc, Waltham, Mass., USA) before the plates were gently washed three times with 290 μl tap water. The plates were dried in room temperature before addition of 220 μl 1% crystal violet (Sigma-Aldrich, St. Louis, Mo., USA). After 30 minutes incubation in room temperature, the plates were washed three times with tap water before the addition of 220 μl ethanol:acetone (70:30 w:w) to dissolve the bound dye. The plates were incubated for 10 minutes in room temperature before OD595 was measured after the bound dye was dissolved using ethanol:acetone. For each strain, the result was calculated by subtracting the median OD595 of the three parallels of the control (test broth only) from the median OD595 of the three parallels of sample. Further, the average result of all three Gram positive strains included in the study were calculated. Three independent experiments were performed and the average was evaluated.

[4] = system: E. coli 1242 and E. coli 1153; test: Biofilm formation in microtiter plates, comparison of 1,3-cyclohexanedione and menthone; type: cell-based, Escherichia coli; conditions: 1 mg/ml, two values, one per strain (E. coli 1242, E. coli 1153)
Description: as §1
as §2, with “A total of 30 μl of this suspension was transferred to each well in 96 wells polystyrene microtiter plates (Nunc, Nuncleon, Roskilde, Denmark) in triplets. The wells were containing 100 μl LB^wo/NaCl (bacto-tryptone 10 g/l, yeast extract 5 g/l) with 1,3-cyclohexanedione dissolved in concentration 0 mg/ml, 1 mg/ml and 10 mg/ml in the total amount of broth and 1,4-cyclohexanedione and cyclopentanone at 0 mg/ml and 10 mg/ml. The microtiter plates were incubated statically for two days, at 20±1.0° C.” left out, “The plates were dried in room temperature before addition of 140 μl 1% crystal violet (Sigma-Aldrich). After 30 minutes incubation in room temperature, the plates were washed three times with tap water before addition of 140 μl ethanol:acetone (70:30 w:w) and incubated for another 10 minutes in room temperature.” left out

Row | Compound | biofilm visualized on carbon steel coupon [1] | decrease in biofilm formation, percentage of the control [2] | decrease in biofilm formation, percentage of the control ([3]; 10 mg/ml) | decrease in biofilm formation, percentage of the control ([3]; 1 mg/ml) | decrease in biofilm formation, percentage of the control ([3]; 2 mg/ml) | decrease in biofilm formation [4]
1 | O=C1CCC(=O)CC1 [1,4-cyclohexanedione] | only scarce amount of biofilm could be visualized | 91% | 53% | – | – | –
2 | CCC1CC(=O)CC(=O)C1 [5-ethylcyclohexane-1,3-dione] | – | – | 98% | 55% | 74% | –
3 | CC1CC(=O)CC(=O)C1 [5-methyl-1,3-cyclohexanedione] | – | – | 98% | 32% | 85% | –
4 | O=C1CCCC1 [cyclopentanone, Cyclopentanone] | only scarce amount of biofilm could be visualized | 77% | – | – | – | –
5 | CC1CCC(C(C)C)C(=O)C1 (stereo not drawn) [menthone, 2-isopropyl-5-methylcyclohexane-1-on, reference compound] | – | – | – | – | – | 27% and 48%

Source: patent US20190144368A1, “Compounds and compositions for biofilm prevention” (INHIBIO AS, priority 2016, published 2019)
